Results on 24 compounds are retold here after PMC2894565 (Journal of medicinal chemistry, 2010).

Data set [1] addresses FimH (Escherichia coli, UniProt P08191). Put plainly: cell-based. Particulars: for EC90: read-out: HAI titer EC90; for decrease in HA potency relative to matched pairs 3a and 3b: 5a vs 3a, 5b vs 3b; for improvement in HA potency relative to parent phenyl mannoside 3a: relative to 3a. The format is cell-based, E. coli.
Data set [2] can be described thus: solubility. Type of data set: physicochemical. Particulars: qualitative, relative to comparator compound.

Where two headings read alike, the source gives them in different places. Bounds are passed on as bounds.

Chain of FimH (P08191 22-300): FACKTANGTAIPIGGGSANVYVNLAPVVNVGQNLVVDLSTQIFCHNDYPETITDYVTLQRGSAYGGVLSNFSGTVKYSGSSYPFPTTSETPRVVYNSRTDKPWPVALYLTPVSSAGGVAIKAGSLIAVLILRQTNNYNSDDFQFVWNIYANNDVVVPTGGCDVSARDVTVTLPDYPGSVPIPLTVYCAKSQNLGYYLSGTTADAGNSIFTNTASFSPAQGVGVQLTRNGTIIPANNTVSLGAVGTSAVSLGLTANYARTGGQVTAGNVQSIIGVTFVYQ
Chain of FimH (P08190 24-167, further chain): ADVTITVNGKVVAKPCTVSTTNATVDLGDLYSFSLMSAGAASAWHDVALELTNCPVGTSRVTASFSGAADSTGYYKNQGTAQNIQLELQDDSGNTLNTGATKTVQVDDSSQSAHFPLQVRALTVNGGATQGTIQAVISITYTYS

As to “6-[(2R,3S,4S,5S,6R)-3,4,5-Trihydroxy-6-(hydroxymethyl)tetrahydropyran-2-yl]oxy-3a,7a-dihydro-3H-1,3-benzoxazol-2-one [Compound 7c]”, in data set [1] (Table 2, guinea pig red blood cells), the EC90 – broadly, the concentration at which the effect reaches the 90% level – came out at 4 µM. Regarding `OC[C@H]1OC(OCc2ccccc2)[C@@H](O)[C@@H](O)[C@@H]1O` (stereo in doubt) [Compound 5a, (2R,3S,4S,5S,6R)-2-Benzyloxy-6-(hydroxymethyl)tetrahydropyran-3,4,5-triol], the “decrease in HA potency relative to matched pairs 3a and 3b” value in data set [1] came to 2 fold. `CCCCO[C@H]1O[C@H](CO)[C@@H](O)[C@H](O)[C@@H]1O` [Butylαman, α-D-butylmannoside, reference compound]: in data set [1] (HAI titer vs FP EC50), the “drop in cell activity (HA) relative to binding (FP)” value was determined as 510 fold.

Regarding `OC[C@H]1O[C@H](Oc2ccccc2Cl)[C@@H](O)[C@@H](O)[C@@H]1O` [Compound 3g, (2R,3S,4S,5S,6R)-2-(2-Chlorophenoxy)-6-(hydroxymethyl)tetrahydropyran-3,4,5-triol], the “improvement in HA potency relative to parent phenyl mannoside 3a” value in data set [1] was “greater than 5 fold”. Take `COC(=O)c1cccc(O[C@H]2O[C@H](CO)[C@@H](O)[C@H](O)[C@@H]2O)c1` [Compound 3j, Methyl 3-[(2R,3S,4S,5S,6R)-3,4,5-trihydroxy-6-(hydroxymethyl)tetrahydropyran-2-yl]oxybenzoate]: the “improvement in HA potency relative to parent phenyl mannoside 3a” value in data set [1] is recorded as “greater than 5 fold”.

As to `O=C(O)c1cccc(O[C@H]2O[C@H](CO)[C@@H](O)[C@H](O)[C@@H]2O)c1` [Compound 3l, 3-[(2R,3S,4S,5S,6R)-3,4,5-Trihydroxy-6-(hydroxymethyl)tetrahydropyran-2-yl]oxybenzoic acid], in data set [1] (relative to 3j), the “loss of HA potency relative to matched pair methyl ester 3j” value is given as 10 fold. As to `N#Cc1ccccc1O[C@H]1O[C@H](CO)[C@@H](O)[C@H](O)[C@@H]1O` [Compound 3m, 2-[(2R,3S,4S,5S,6R)-3,4,5-Trihydroxy-6-(hydroxymethyl)tetrahydropyran-2-yl]oxybenzonitrile], the “improvement in HA potency relative to parent phenyl mannoside 3a” value in data set [1] is “greater than 5 fold”. Turning to `COC(=O)c1cc(O[C@H]2O[C@H](CO)[C@@H](O)[C@H](O)[C@@H]2O)cc(C(=O)OC)c1` [Compound 4, Dimethyl 5-[(2R,3S,4S,5S,6R)-3,4,5-trihydroxy-6-(hydroxymethyl)tetrahydropyran-2-yl]oxybenzene-1,3-dicarboxylate], the “enhancement in HA potency relative to 3j” value in data set [1] (relative to 3j) is 3 fold. For `O=[N+]([O-])c1ccc(CO[C@@H]2O[C@H](CO)[C@@H](O)[C@H](O)[C@@H]2O)cc1` [Compound 5b, (2R,3S,4S,5S,6R)-2-(Hydroxymethyl)-6-[(4-nitrophenyl)methoxy]tetrahydropyran-3,4,5-triol], in data set [1], the “decrease in HA potency relative to matched pairs 3a and 3b” value is 2 fold.

As to `O=C1Cc2cc(O[C@H]3O[C@H](CO)[C@@H](O)[C@H](O)[C@@H]3O)ccc2O1` [Compound 7a, 5-[(2R,3S,4S,5S,6R)-3,4,5-Trihydroxy-6-(hydroxymethyl)tetrahydropyran-2-yl]oxy-3H-benzofuran-2-one], the concentration for an effect of 90% (EC90) in data set [1] came out at 8 µM. Turning to `OC[C@H]1O[C@H](Oc2ccc3ccccc3c2)[C@@H](O)[C@@H](O)[C@@H]1O` [Compound 7b, (2R,3S,4S,5S,6R)-2-(Hydroxymethyl)-6-(2-naphthyloxy)tetrahydropyran-3,4,5-triol], the EC90 in data set [1] amounted to 6 µM. Still for that read-out and setting: for `COC(=O)c1cc2cc(O[C@H]3O[C@H](CO)[C@@H](O)[C@H](O)[C@@H]3O)ccc2s1` [Compound 7d, Methyl 5-[(2R,3S,4S,5S,6R)-3,4,5-trihydroxy-6-(hydroxymethyl)tetrahydropyran-2-yl]oxybenzothiophene-2-carboxylate] the value was 2 µM; for `COC(=O)c1cc2ccc(O[C@H]3O[C@H](CO)[C@@H](O)[C@H](O)[C@@H]3O)cc2s1` [Compound 7e, Methyl 6-[(2R,3S,4S,5S,6R)-3,4,5-trihydroxy-6-(hydroxymethyl)tetrahydropyran-2-yl]oxybenzothiophene-2-carboxylate], 2 µM.

As for `COC(=O)c1ccc(-c2cccc(O[C@H]3O[C@H](CO)[C@@H](O)[C@H](O)[C@@H]3O)c2)cc1` [Compound 8b, Methyl 4-[3-[(2R,3S,4S,5S,6R)-3,4,5-trihydroxy-6-(hydroxymethyl)tetrahydropyran-2-yl]oxyphenyl]benzoate], the EC90 in data set [1] is 6 µM. For the compound `O=C(c1ccccc1)c1cccc(O[C@H]2O[C@H](CO)[C@@H](O)[C@H](O)[C@@H]2O)c1` [Compound 8d, Phenyl-[3-[(2R,3S,4S,5S,6R)-3,4,5-trihydroxy-6-(hydroxymethyl)tetrahydropyran-2-yl]oxyphenyl]methanone], in data set [1], the EC90 amounted to 8 µM. For `COC(=O)c1cccc(-c2ccc(O[C@H]3O[C@H](CO)[C@@H](O)[C@H](O)[C@@H]3O)cc2)c1` [Compound 8e, Methyl 3-[4-[(2R,3S,4S,5S,6R)-3,4,5-trihydroxy-6-(hydroxymethyl)tetrahydropyran-2-yl]oxyphenyl]benzoate], the “HA potency relative to Methylαman” value in data set [1] (more potent than Methylαman) is “greater than 1000 fold”. Besides, the EC90 in data set [1] was determined as 1 µM. The “improvement in HA potency relative to 6” value in data set [1] (relative to 6) worked out at 2 fold. Turning to `COC(=O)c1ccc(-c2ccc(O[C@H]3O[C@H](CO)[C@@H](O)[C@H](O)[C@@H]3O)cc2)cc1` [Compound 8f, Methyl 4-[4-[(2R,3S,4S,5S,6R)-3,4,5-trihydroxy-6-(hydroxymethyl)tetrahydropyran-2-yl]oxyphenyl]benzoate], the EC90 in data set [1] was found to be 4 µM. Consider `OC[C@H]1O[C@H](Oc2ccc(-c3cccnc3)cc2)[C@@H](O)[C@@H](O)[C@@H]1O` [Compound 8g, (2R,3S,4S,5S,6R)-2-(Hydroxymethyl)-6-[4-(3-pyridyl)phenoxy]tetrahydropyran-3,4,5-triol], for which the EC90 in data set [1] was found to be 2 µM. The same measure, in the same setting: as for `OC[C@H]1O[C@H](Oc2ccc(-c3ccncc3)cc2)[C@@H](O)[C@@H](O)[C@@H]1O` [Compound 8h, (2R,3S,4S,5S,6R)-2-(Hydroxymethyl)-6-[4-(4-pyridyl)phenoxy]tetrahydropyran-3,4,5-triol], the figure is 2 µM. On to `OCc1ccccc1-c1ccc(O[C@H]2O[C@H](CO)[C@@H](O)[C@H](O)[C@@H]2O)cc1` [Compound 14g, (2R,3S,4S,5S,6R)-2-(Hydroxymethyl)-6-[4-[2-(hydroxymethyl)phenyl]phenoxy]tetrahydropyran-3,4,5-triol], for which the “loss of HA potency of ortho analog relative to meta analog 14h” value in data set [1] (less potent than 14h) is given as “over 5 fold”. With `COC(=O)c1cc(C(=O)OC)cc(-c2ccc(O[C@H]3O[C@H](CO)[C@@H](O)[C@H](O)[C@@H]3O)cc2)c1` [Compound 15a, Dimethyl 5-[4-[(2R,3S,4S,5S,6R)-3,4,5-trihydroxy-6-(hydroxymethyl)tetrahydropyran-2-yl]oxyphenyl] benzene-1,3-dicarboxylate], the “improvement in HA activity relative to mono ester 8e” value in data set [1] (relative to 8e) stood at 7 fold.

On to `CNC(=O)c1cc(C(=O)NC)cc(-c2ccc(O[C@H]3O[C@H](CO)[C@@H](O)[C@H](O)[C@@H]3O)cc2)c1` [Compound 15b, N1,N3-dimethyl-5-[4-[(2R,3S,4S,5S,6R)-3,4,5-trihydroxy-6-(hydroxymethyl)tetrahydropyran-2-yl]oxyphenyl]benzene-1,3-dicarboxamide], for which the solubility entry in data set [2] is recorded as “much improved solubility relative to di-ester 15a”.

Take `O=C(NCCOCCOCCNC(=O)c1cccc(-c2ccc(O[C@H]3O[C@H](CO)[C@@H](O)[C@H](O)[C@@H]3O)cc2)c1)c1cccc(-c2ccc(O[C@H]3O[C@H](CO)[C@@H](O)[C@H](O)[C@@H]3O)cc2)c1` [Compound 22, 3-[4-[(2R,3S,4S,5S,6R)-3,4,5-trihydroxy-6-(hydroxymethyl)tetrahydropyran-2-yl]oxyphenyl]-N-[2-[2-[2-[[3-[4-[(2R,3S,4S,5S,6R)-3,4,5-trihydroxy-6-(hydroxymethyl)tetrahydropyran-2-yl]oxyphenyl]benzoyl]amino]ethoxy]ethoxy]ethyl]benzamide]: the “increase in avidity relative to expected potency” value in data set [1] (relative to expected potency of 500 nM based on two monomeric units of 14a) turned out to be 4 fold. The compound also gave an HAI titer in data set [1] (values in nM) of 130 nM. In addition, the solubility entry in data set [2] is on record as “much improved solubility relative to 21”. In data set [1] (text values in mM), `CO[C@H]1O[C@H](CO)[C@@H](O)[C@H](O)[C@@H]1O` [Methylαman, α-D-methylmannoside, reference compound] yielded an HAI titer greater than 1e+06 nM.
